Experimental data taken from patent US11905294B2, “Imidazo[1,5-a]pyrazine derivatives as PI3Kδ inhibitors” (BEIGENE, LTD., priority 2017, dated 2024).
Where two headings read alike, the source gives them in different places.

Legend:
[1] = target: PI3K (p110β/p85α) (Homo sapiens, UniProt P42338); assay: PI3Kβ assay (ADP-Glo Kinase Assay); type: biochemical
[2] = target: PI3K (p110δ/p85α) (Homo sapiens, UniProt O00329); assay: PI3Kδ assay (ADP-Glo Kinase Assay); type: biochemical; conditions: recombinant enzyme; IC50 (nM) or max inhibition (%) at 0.5 μM
Sequence of PI3K (p110δ/p85α) (O00329 whole entry): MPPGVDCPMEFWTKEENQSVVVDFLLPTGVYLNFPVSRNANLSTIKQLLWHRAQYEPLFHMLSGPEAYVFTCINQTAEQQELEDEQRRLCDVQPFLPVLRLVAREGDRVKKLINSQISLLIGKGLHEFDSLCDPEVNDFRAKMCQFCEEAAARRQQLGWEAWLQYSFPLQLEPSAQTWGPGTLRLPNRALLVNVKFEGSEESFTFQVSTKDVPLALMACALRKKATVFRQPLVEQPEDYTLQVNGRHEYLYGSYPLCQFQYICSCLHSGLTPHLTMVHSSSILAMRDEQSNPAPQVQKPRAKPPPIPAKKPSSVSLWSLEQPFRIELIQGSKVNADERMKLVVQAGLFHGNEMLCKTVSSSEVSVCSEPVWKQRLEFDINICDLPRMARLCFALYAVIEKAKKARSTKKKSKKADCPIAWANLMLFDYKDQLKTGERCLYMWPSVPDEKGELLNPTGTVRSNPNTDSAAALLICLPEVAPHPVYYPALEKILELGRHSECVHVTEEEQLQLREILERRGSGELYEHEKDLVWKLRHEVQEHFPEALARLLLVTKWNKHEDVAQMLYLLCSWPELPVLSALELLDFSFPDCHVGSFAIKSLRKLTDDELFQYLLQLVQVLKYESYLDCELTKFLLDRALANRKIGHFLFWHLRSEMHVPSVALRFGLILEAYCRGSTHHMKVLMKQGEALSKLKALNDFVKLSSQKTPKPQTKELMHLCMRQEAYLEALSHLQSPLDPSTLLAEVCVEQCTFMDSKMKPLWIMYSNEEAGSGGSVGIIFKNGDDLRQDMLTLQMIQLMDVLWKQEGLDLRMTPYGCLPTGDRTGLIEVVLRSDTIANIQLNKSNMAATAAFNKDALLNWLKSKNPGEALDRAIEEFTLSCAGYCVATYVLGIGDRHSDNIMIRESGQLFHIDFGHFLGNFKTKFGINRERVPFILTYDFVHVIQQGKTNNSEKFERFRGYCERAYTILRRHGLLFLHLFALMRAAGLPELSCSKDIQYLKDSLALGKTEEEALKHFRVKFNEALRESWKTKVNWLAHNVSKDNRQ
Sequence of PI3K (p110δ/p85α) (P27986 whole entry partner): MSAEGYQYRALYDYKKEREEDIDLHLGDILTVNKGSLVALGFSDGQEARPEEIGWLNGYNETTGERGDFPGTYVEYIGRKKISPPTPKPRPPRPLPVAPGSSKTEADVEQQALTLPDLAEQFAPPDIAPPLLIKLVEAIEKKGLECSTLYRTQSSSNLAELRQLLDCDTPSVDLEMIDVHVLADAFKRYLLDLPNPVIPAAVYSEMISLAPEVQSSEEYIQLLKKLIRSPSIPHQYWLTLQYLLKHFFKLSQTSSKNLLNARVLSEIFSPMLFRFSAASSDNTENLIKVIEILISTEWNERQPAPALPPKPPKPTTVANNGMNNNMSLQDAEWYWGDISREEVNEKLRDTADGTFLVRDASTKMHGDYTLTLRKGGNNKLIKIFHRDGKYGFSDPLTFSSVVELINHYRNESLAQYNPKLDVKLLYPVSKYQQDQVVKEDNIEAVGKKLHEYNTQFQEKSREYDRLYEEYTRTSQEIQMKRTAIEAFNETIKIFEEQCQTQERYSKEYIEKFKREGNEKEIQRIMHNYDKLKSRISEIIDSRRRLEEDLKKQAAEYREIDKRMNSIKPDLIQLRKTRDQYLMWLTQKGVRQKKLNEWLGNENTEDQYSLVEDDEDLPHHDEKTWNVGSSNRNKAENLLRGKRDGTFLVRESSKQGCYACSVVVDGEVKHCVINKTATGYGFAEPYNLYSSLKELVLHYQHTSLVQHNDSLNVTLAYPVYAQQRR
Summary of the method: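 Recombinant p110δ/p85α with lipid substrate and serially diluted compound, 0.5 hr RT preincubation; ATP-started reaction ran 1 hr at RT. ADP formed read by ADP-Glo luminescence; IC50 from four-parameter logistic fit of residual activity.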

[3] = target: PI3K (p110γ) (Homo sapiens, UniProt P48736); assay: PI3Kγ assay (ADP-Glo Kinase Assay); type: biochemical; conditions: recombinant enzyme; IC50 (nM) or max inhibition (%) at 0.5 μM
Sequence of PI3K (p110γ) (P48736 whole entry): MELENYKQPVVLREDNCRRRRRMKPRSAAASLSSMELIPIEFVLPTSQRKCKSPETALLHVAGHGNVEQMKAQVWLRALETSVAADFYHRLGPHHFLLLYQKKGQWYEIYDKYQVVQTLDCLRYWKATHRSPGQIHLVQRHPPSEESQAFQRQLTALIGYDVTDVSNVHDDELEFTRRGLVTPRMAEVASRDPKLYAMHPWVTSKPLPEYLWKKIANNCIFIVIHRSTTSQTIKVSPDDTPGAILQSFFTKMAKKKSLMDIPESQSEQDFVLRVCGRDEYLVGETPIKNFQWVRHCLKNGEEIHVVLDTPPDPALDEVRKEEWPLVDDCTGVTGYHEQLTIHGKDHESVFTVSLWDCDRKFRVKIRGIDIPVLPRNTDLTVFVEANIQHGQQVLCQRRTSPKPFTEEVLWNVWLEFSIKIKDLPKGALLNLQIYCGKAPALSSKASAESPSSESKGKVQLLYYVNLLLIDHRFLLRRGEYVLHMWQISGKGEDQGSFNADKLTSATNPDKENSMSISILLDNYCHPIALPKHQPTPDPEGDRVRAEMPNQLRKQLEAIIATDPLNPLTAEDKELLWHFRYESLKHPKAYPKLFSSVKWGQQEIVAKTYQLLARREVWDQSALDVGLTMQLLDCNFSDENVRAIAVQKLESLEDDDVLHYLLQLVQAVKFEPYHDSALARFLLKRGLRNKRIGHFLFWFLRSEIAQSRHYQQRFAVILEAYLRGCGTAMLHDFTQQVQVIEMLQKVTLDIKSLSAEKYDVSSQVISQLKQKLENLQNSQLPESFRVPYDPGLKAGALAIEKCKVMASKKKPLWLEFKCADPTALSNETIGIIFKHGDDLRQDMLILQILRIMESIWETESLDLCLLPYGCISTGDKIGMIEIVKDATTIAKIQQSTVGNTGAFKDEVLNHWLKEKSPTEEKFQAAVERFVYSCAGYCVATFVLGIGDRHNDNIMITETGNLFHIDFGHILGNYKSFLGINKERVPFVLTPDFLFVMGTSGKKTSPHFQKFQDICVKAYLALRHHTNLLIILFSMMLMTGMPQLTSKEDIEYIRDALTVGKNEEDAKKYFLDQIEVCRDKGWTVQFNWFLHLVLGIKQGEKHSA

[4] = target: PI3K (p110α/p85α) (Homo sapiens, UniProt P42336); assay: PI3Kα assay (ADP-Glo Kinase Assay); type: biochemical; conditions: recombinant enzyme; IC50 (nM) or max inhibition (%) at 0.5 μM
Sequence of PI3K (p110α/p85α) (P42336 whole entry): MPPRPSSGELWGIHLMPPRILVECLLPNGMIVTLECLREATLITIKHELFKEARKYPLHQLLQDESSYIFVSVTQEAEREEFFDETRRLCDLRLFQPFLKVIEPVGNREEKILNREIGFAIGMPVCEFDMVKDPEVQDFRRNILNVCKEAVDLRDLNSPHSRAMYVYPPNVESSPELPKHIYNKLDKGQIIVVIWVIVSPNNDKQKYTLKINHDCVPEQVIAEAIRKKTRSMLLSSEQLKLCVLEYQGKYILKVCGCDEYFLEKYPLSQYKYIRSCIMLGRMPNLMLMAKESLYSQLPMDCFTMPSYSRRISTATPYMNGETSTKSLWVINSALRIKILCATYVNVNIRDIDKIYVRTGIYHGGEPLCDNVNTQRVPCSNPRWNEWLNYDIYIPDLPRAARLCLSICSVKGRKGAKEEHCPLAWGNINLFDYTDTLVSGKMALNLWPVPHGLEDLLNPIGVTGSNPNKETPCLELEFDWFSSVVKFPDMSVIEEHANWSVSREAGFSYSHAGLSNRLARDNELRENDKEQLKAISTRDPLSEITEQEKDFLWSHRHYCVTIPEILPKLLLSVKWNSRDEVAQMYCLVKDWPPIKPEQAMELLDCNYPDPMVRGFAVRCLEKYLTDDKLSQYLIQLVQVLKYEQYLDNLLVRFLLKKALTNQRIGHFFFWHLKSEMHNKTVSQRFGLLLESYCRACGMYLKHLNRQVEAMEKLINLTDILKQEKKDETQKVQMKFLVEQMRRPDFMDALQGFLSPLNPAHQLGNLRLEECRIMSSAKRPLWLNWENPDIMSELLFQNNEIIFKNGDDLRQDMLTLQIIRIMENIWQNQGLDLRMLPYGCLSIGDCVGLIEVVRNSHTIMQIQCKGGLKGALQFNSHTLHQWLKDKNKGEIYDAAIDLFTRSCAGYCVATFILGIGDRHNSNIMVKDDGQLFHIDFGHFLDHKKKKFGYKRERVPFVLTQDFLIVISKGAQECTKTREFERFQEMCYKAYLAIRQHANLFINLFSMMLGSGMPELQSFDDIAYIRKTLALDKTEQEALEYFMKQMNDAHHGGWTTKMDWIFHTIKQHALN
Sequence of PI3K (p110α/p85α) (P27986 whole entry partner): as the sequence (P27986 whole entry partner) above

[5] = Pharmacokinetic properties in Sprague-Dawley rats after intravenous (IV) and oral (PO) administration; type: in vivo; conditions: rat; for AUC(0-inf) / clearance / half-life / Vd / Cmax / Tmax / bioavailability: male, Sprague-Dawley, plasma; for Vd: read-out: VdSS
Procedure: III. Pharmacokinetic Properties of Compounds in Sprague-Dawley Rats After Intravenous (IV) and Oral Administrations (PO)
The injection dosing solution was prepared as follows: 1.0 mg of a test compound was weighed and dissolved in 0.32 mL of dimethyl acetamide (DMA). The solution was then further diluted by 0.36 mL of ethanol and 0.32 mL of propylene glycol. The final concentration of the test compound was 1.0 mg·mL^−1.
The oral dosing solution was prepared as follows: 5.0 mg of a test compound was weighed and dispersed in […] of 0.5% methyl cellulose (MC). The final concentration of the test compound is 1 mg·mL^−1.
Male Sprague-Dawley rats (also summarized in Table 2) were housed in solid bottom polypropylene cages with sterilized bedding and receive sterilized diet and sterilized water. The room was controlled and monitored for humidity (targeted mean range 40% to 70%) and temperature (targeted mean range 18° C. to 26° C.) with 10 to 20 air changes/hour. The light cycle was maintained at 12-h light and 12-h dark. Only animals that appeared to be healthy were selected for this study based on overall health, body weight, or other relevant information.
Three rats were given a single IV dose of 1 mg·kg^−1 via tail vein injection and other three rats were given a single oral dose of 5 or 10 mg·kg^−1. The dosing solutions were freshly prepared prior to dose administration. The actual body weights and actual volume injected were recorded accordingly. Four hours after dosing, the rats were allowed to intake food.
Blood samples (˜150 μL) were collected at different times from the jugular vein catheter into EDTA-K2 coated tubes. Whole blood was processed by centrifugation at 3000 g for 10 min. Plasma samples were collected and kept at −80° C. freezer prior to analysis. The blood sampling time was recorded accordingly.
The dose samples of IV and PO were diluted with MeOH: H2O (4:1, v/v) to achieve the concentration of 2 μg·mL^−1, respectively. Then, 2.5 μL of the diluted samples were added with 47.5 μL blank plasma, and then were handled as the plasma sample procedure. An aliquot of 10 μL of the mixture was injected into the LC-MS/MS system.

[6] = read-out: Enzyme activity IC50 PI3Kβ

Sequence of PI3K (p110β/p85α) (P42338 whole entry): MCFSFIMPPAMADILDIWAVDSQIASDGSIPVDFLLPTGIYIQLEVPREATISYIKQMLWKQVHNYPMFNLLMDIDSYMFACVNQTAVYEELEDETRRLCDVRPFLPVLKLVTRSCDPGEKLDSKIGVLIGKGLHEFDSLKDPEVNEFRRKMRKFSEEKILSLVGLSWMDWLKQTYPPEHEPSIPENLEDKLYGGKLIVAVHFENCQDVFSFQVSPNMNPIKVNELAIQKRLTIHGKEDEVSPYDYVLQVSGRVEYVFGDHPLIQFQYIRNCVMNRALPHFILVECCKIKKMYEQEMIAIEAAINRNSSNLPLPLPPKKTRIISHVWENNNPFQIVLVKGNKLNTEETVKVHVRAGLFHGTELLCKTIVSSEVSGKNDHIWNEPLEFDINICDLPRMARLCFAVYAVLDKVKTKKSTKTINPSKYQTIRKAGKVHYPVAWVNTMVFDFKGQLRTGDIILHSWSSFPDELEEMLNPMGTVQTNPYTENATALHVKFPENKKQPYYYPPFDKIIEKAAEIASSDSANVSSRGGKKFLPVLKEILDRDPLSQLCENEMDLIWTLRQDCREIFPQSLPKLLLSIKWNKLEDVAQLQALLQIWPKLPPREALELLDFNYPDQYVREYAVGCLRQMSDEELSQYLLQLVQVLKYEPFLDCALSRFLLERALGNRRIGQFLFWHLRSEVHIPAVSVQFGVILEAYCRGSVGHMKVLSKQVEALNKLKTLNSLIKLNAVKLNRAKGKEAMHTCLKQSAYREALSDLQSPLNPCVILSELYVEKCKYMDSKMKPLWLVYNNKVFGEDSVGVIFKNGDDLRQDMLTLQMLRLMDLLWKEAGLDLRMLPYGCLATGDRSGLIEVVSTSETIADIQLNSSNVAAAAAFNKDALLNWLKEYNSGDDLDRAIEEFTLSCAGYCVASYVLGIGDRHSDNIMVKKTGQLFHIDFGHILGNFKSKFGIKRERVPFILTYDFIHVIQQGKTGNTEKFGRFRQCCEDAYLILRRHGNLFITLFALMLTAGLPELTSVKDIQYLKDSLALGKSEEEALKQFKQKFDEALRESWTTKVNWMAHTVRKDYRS
Sequence of PI3K (p110β/p85α) (P27986 whole entry partner): as the sequence (P27986 whole entry partner) above

| Compound | IC50 [1, 6] [nM] | IC50 [2] [nM] | IC50 [3] [nM] | IC50 [4] [nM] | also measured |
| --- | --- | --- | --- | --- | --- |
| Cc1nc([C@@H](C)c2cc(Cl)c(F)c(C(=O)N[C@H](C)c3ccnc(C(F)(F)F)c3)c2OC(C)C)n2ccnc(N)c12 [Compound 59B, 3((S)-1-(8-amino-1-methylimidazo[1,5-a]pyrazin-3-yl)ethyl)-5-chloro-6-fluoro-2-isopropoxy-N-((R)-1-(2-(trifluoromethyl)pyridin-4-yl)ethyl)benzamide] | 26000 | 1.5 | 2800 | 14000 | – |
| Cc1nc([C@@H](C)c2cc(Cl)c(F)c(C(=O)N[C@H]3CC[C@H](O)CC3)c2OC(C)C)n2ccnc(N)c12 [Compound 60, 3((S)-1-(8-amino-1-methylimidazo[1,5-a]pyrazin-3-yl)ethyl)-5-chloro-6-fluoro-N-((trans)-4-hydroxycyclohexyl)-2-isopropoxybenzamide] | 35000 | 0.95 | 6300 | 11000 | AUC(0-inf) ([5]; 1 mg/kg, IV 1 mpk): 218 ng·h/mL; clearance ([5]; 1 mg/kg, IV 1 mpk): 76.6 mL/min/kg; half-life ([5]; 1 mg/kg, IV 1 mpk): 0.6 h; Vd ([5]; 1 mg/kg, IV 1 mpk): 3.3 L/kg; AUC(0-inf) ([5]; 5 mg/kg, PO 5 mpk): 159 ng·h/mL; Cmax ([5]; 5 mg/kg, PO 5 mpk): 133 ng/mL; Tmax ([5]; 5 mg/kg, PO 5 mpk): 0.3 h; half-life ([5]; 5 mg/kg, PO 5 mpk): 2 h; bioavailability ([5]; 5 mg·kg^−1, PO 5 mpk vs IV 1 mpk): 14.6% |
| Cc1nc([C@@H](C)c2cc(Cl)c(F)c(C(=O)N[C@H]3C[C@H](O)C3)c2OC(C)C)n2ccnc(N)c12 [Compound 61, 3-((S)-1-(8-amino-1-methylimidazo[1,5-a]pyrazin-3-yl)ethyl)-5-chloro-6-fluoro-N-((trans)-3-hydroxycyclobutyl)-2-isopropoxybenzamide] | 12000 | 1.4 | 4500 | 21000 | – |
| Cc1nc([C@@H](C)c2cc(Cl)c(F)c(C(=O)N[C@H]3CC[C@@H](O)CC3)c2OC(C)C)n2ccnc(N)c12 [Compound 62, 3((S)-1-(8-amino-1-methylimidazo[1,5-a]pyrazin-3-yl)ethyl)-5-chloro-6-fluoro-N-((cis)-4-hydroxycyclohexyl)-2-isopropoxybenzamide] | 29000 | 1.4 | 9000 | 17000 | – |
| Cc1nc([C@@H](C)c2cc(Cl)c(F)c(C(=O)N[C@H]3C[C@@H](O)C3)c2OC(C)C)n2ccnc(N)c12 [Compound 63, 3-((S)-1-(8-amino-1-methylimidazo[1,5-a]pyrazin-3-yl)ethyl)-5-chloro-6-fluoro-N-((cis)-3-hydroxycyclobutyl)-2-isopropoxybenzamide] | 7400 | 1.1 | 4200 | 38000 | – |
| Cc1nc([C@@H](C)c2cc(Cl)c(F)c(C(=O)N3CCC4(CC3)COC4)c2OC(C)C)n2ccnc(N)c12 [Compound 64, (S)-(3-(1-(8-amino-1-methylimidazo[1,5-a]pyrazin-3-yl)ethyl)-5-chloro-6-fluoro-2-isopropoxyphenyl)(2-oxa-7-azaspiro[3.5]nonan-7-yl)methanone] | > 50000 | 1.6 | 14000 | > 50000 | – |
| Cc1nc([C@@H](C)c2cc(Cl)c(F)c(C(=O)NCC3(O)CC3)c2OC(C)C)n2ccnc(N)c12 [Compound 66, (S)-3(1-(8-amino-1-methylimidazo[1,5-a]pyrazin-3-yl)ethyl)-5-chloro-6-fluoro-N-((1-hydroxycyclopropyl)methyl)-2-isopropoxybenzamide] | 12000 | 2.2 | 3400 | 14000 | – |
| Cc1nc([C@@H](C)c2cc(Cl)c(F)c(C(=O)N3CC4(CCOC4)C3)c2OC(C)C)n2ccnc(N)c12 [Compound 68, (S)-(3-(1-(8-amino-1-methylimidazo[1,5-a]pyrazin-3-yl)ethyl)-5-chloro-6-fluoro-2-isopropoxyphenyl)(6-oxa-2-azaspiro[3.4]octan-2-yl)methanone] | 23000 | 1.7 | 4600 | 40000 | – |
| CO[C@@H]1CCCN(C(=O)c2c(F)c(Cl)cc([C@H](C)c3nc(C)c4c(N)nccn34)c2OC(C)C)C1 [Compound 69, (3-((S)-1-(8-amino-1-methylimidazo[1,5-a]pyrazin-3-yl)ethyl)-5-chloro-6-fluoro-2-isopropoxyphenyl)((R)-3-methoxypiperidin-1-yl)methanone] | > 50000 | 2 | 5200 | > 50000 | – |
| CO[C@H]1CCN(C(=O)c2c(F)c(Cl)cc([C@H](C)c3nc(C)c4c(N)nccn34)c2OC(C)C)C1 [Compound 70, (3-((S)-1-(8-amino-1-methylimidazo[1,5-a]pyrazin-3-yl)ethyl)-5-chloro-6-fluoro-2-isopropoxyphenyl)((S)-3-methoxypyrrolidin-1-yl)methanone] | > 50000 | 1.9 | 6700 | 41000 | – |
| Cc1nc([C@@H](C)c2cc(Cl)c(F)c(C(=O)N[C@H]3CC[C@H](O)C3)c2OC(C)C)n2ccnc(N)c12 [Compound 71, 3-((S)-1-(8-amino-1-methylimidazo[1,5-a]pyrazin-3-yl)ethyl)-5-chloro-6-fluoro-N-((1S,3S)-3-hydroxycyclopentyl)-2-isopropoxybenzamide] | 13000 | 1.4 | 3400 | 14000 | – |
| Cc1nc([C@@H](C)c2cc(Cl)c(F)c(C(=O)NCCN3CCN(C)CC3)c2OC(C)C)n2ccnc(N)c12 [Compound 73, (S)-3-(1-(8-amino-1-methylimidazo[1,5-a]pyrazin-3-yl)ethyl)-5-chloro-6-fluoro-2-isopropoxy-N-(2-(4-methylpiperazin-1-yl)ethyl)benzamide] | 14000 | 2.8 | 9500 | 14000 | AUC(0-inf) ([5]; 1 mg/kg, IV 1 mpk): 194 ng·h/mL; clearance ([5]; 1 mg/kg, IV 1 mpk): 86.6 mL/min/kg; half-life ([5]; 1 mg/kg, IV 1 mpk): 8.2 h; Vd ([5]; 1 mg/kg, IV 1 mpk): 59.4 L/kg; AUC(0-inf) ([5]; 10 mg/kg, PO 10 mpk): 918 ng·h/mL; Cmax ([5]; 10 mg/kg, PO 10 mpk): 220 ng/mL; Tmax ([5]; 10 mg/kg, PO 10 mpk): 1.5 h; half-life ([5]; 10 mg/kg, PO 10 mpk): 5.6 h; bioavailability ([5]; 10 mg·kg^−1, PO 10 mpk vs IV 1 mpk): 34.9%; half-life (in words) ([5]; in vivo): unexpected long half-life |
| (S)-3-(1-(8-amino-1-methylimidazol[1,5-a]pyrazin-3-yl)ethyl)-5-chloro-6-fluoro-2-isopropoxy-N-(4-methoxyphenyl)benzamide [Compound 29] | – | 1.1 | 2100 | 11000 | IC50 ([1]; recombinant enzyme, 2 hrs kinase reaction, IC50 (nM) or max inhibition (%) at 0.5 μM): 9900 nM |
